Here are results for two compounds from paper PMC6020091 (Chemistry Central Journal, 2018).

Assay [1] concerns the target T1, AChE (acetylcholinesterase) (Electrophorus electricus, UniProt O42275). Kind of assay: colorimetric hydroxamic acid/FeCl3 assay of remaining ACh (Bonting and Featherstone), enzyme kinetics with Lineweaver-Burk plot. It counts as biochemical.
Assay [2] addresses T1, AChE (acetylcholinesterase). Description: colorimetric hydroxamic acid/FeCl3 assay of remaining ACh (Bonting and Featherstone), non-linear regression. The assay is classed as biochemical.

T1 sequence (O42275 24-633 limits assumed): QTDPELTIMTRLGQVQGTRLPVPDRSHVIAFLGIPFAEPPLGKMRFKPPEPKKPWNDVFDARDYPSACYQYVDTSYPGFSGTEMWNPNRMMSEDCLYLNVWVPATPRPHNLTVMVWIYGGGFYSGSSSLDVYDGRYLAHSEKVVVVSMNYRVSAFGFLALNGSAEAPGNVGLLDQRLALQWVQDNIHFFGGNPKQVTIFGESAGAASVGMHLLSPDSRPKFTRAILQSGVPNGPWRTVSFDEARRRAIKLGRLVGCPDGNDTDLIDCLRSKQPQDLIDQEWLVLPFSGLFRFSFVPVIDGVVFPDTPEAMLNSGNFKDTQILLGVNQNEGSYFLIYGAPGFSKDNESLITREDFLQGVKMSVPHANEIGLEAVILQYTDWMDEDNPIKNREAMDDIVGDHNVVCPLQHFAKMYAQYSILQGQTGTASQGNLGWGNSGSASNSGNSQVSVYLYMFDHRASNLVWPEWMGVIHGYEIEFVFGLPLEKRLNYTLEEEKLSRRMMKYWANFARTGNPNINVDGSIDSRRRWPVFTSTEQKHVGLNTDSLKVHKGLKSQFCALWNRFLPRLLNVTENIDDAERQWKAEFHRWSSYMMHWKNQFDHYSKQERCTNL

`COc1ccc(CCN2C(=O)c3ccccc3C2=O)cc1OC` [compound 1] showed an inhibition constant (Ki) in assay [1] of 330 to 930 µM.

In assay [2], `CN(C)C(=O)Oc1cccc([N+](C)(C)C)c1` [neostigmine] gave an inhibition constant Ki of 93 to 157 µM.

A word on the Ki: it is the dissociation constant of the complex between target and ligand, obtained from inhibition or displacement. Read a low Ki as tighter binding.
